Experimental findings from paper PMC7822874, “Chemoprotective antimalarials identified through quantitative high-throughput screening of Plasmodium blood and liver stage parasites” (Scientific Reports, 2021) are described below.

The test system of this assay is Plasmodium falciparum Dd2 asexual blood stage parasites. Nature of the assay: microbe, parasite or virus in culture. The conditions noted are these: Plasmodium falciparum, DD2, Erythrocyte, 72 h; read-out: AC50. Also noted: species or system Plasmodium falciparum Dd2 in human erythrocytes; single determination (one 11-point concentration-response curve).

For the compound `O=c1oc2ccccc2c(N2CCCCC2)c1CN1CCCC1` [MLS000525481-01], the AC50 was determined as 9.44 µM.

With `Cn1cc(CN2CCCC(COc3ccccc3C(=O)N3CCCC3)C2)c2ccccc21` (centres unmarked) [NCGC00427140-01], the AC50 was determined as 9.44 µM.

`O=C1NC2(CCN(Cc3ccc(C(F)(F)F)cc3)CC2)COc2ccccc21` [NCGC00477447-01]: the AC50 turned out to be 8.41 µM.

`CC(C)(Oc1nn(Cc2cccc(Cl)c2)c2ccccc12)C(=O)NCCN1CCOCC1` [NCGC00419620-01]: the AC50 is 5.31 µM.

For the compound `N#Cc1ccc(CN2CC[C@@H]3C(=O)NCCCCCCN(Cc4ccncc4)[C@@H]3C2)cc1` [NCGC00467216-01], the concentration at half-maximal activity (AC50) was determined as 10.6 µM.

In the case of `Cc1cccc(CN2CCN(C(=O)CCl)CC2)c1` [MLS000336096-01], the half-maximal activity concentration (AC50) came to 13.3 µM.

Consider `Cc1c(Cl)cccc1Nc1nn2c(=O)c3ccc(C(=O)N(C)Cc4ccccc4)cc3nc2s1` [NCGC00125571-01], for which the AC50 came to 16.8 µM.

For the compound `COc1ccc(CN2CC(Oc3ccccc3C(=O)NCc3ccccc3)C2)c(OC)c1` [NCGC00458086-01], the half-maximal activity concentration (AC50) came to 10.6 µM.

Consider `COc1ccc2c(c1)OC(C)(C)[C@@H](c1ccccc1)[C@@H]2c1ccc(OCCN2CCCC2)cc1` [NCGC00181100-01], for which the half-maximal activity concentration (AC50) came to 6.68 µM.

Consider `CCCCn1c(N)c(N(CC(C)C)C(=O)c2cc(-c3ccc(OC)c(OC)c3)nc3ccccc23)c(=O)[nH]c1=O` [MLS001157051-01], for which the concentration at half-maximal activity (AC50) amounted to 11.9 µM.

In the case of `COc1cc(NC(=O)CSc2nc(-c3ccccc3)no2)cc(OC)c1` [NCGC00127876-01], the AC50 is 2.37 µM.

On to `CCOc1ccc(-n2c(SCC(N)=O)nc3sc4c(c3c2=O)CCN(C)C4)cc1` [MLS000332254-01], for which the half-maximal activity concentration (AC50) worked out at 15 µM.

Take `CC1CCN(C(=O)C[C@@H]2c3nc(NC(=O)c4cccc(F)c4)sc3C[C@@H]3[C@](C)(CO)[C@H](O)CC[C@]32C)CC1` [NCGC00394310-01]: the AC50 was found to be 10.6 µM.

For the compound `O=C(c1ccc2c(c1)OCO2)N1CCC2(CC1)COc1ccccc1CN2` [NCGC00477555-01], the AC50 is 5.31 µM.

`COc1ccc(NC(=O)c2ccc(-c3nnc4ccc(NC(=O)C5CCC5)cn34)cc2)cc1` [NCGC00429884-01]: the half-maximal activity concentration (AC50) was determined as 4.22 µM.

Regarding `COc1cc2nc(NCCc3cccc(C)c3)n3nc(-c4ccccc4)nc3c2cc1OC` [NCGC00112859-01], the concentration at half-maximal activity (AC50) was determined as 0.841 µM.

For the compound `CC(C)CCNC(=O)c1cc(C(=O)c2cc(F)ccc2O)cn(CCC(C)C)c1=O` [MLS000761418-01], the AC50 is 2.11 µM.

`N#Cc1c2c(c(NCc3ccco3)n3c1nc1ccccc13)CCC2` [MLS000109113-01]: the AC50 was 2.37 µM.

Take `O=C(NC1=C(Nc2ccc(F)cc2)C(=O)c2ccccc2C1=O)c1ccc(Cl)cc1` [MLS000375026-01]: the half-maximal activity concentration (AC50) turned out to be 0.841 µM.

As for `Clc1ccc(C(Cn2ccnc2)OCc2csc3c(Cl)cccc23)c(Cl)c1` (centres unmarked) [MLS002154122-01], the AC50 is 2.37 µM.

As for `CC(=O)Nc1ccc2nnc(-c3ccc(C(=O)N4CCCCCC4)cc3)n2c1` [NCGC00429830-01], the half-maximal activity concentration (AC50) is 8.41 µM.

Take `O=C(NCCc1c[nH]c2ccccc12)[C@@H]1C[C@H]2C(=O)NCCCCCCN(C(=O)c3ccco3)[C@H]2C1` [NCGC00465014-01]: the AC50 turned out to be 10.6 µM.

Take `COc1ccc(-c2nnc(C[C@@H]3C[C@@H](C(C)C)[C@H](CN4CCC(O)CC4)C=C3C)o2)cc1` [NCGC00394772-01]: the AC50 was 9.44 µM.

Take `COc1ccc(-c2nnc(C[C@@H]3C[C@@H](C(C)C)[C@H](CNCc4cccnc4)C=C3C)o2)cc1` [NCGC00394182-01]: the AC50 was 6.68 µM.

Take `CCOC(=O)c1nnn(-c2nonc2N)c1-c1ccc(Br)cc1` [MLS000727795-01]: the AC50 was 2.66 µM.

In the case of `O=C(C1CC1)N1CCc2cc(Br)cc([S+](=O)([O-])N3CCN(c4cccc(C(F)(F)F)c4)CC3)c21` [NCGC00104294-01], the AC50 came to 4.73 µM.

Turning to `O=C(c1cccs1)N1CCCCCC1CN1CCCC1` (centres unmarked) [NCGC00456696-01], the concentration at half-maximal activity (AC50) stood at 10.6 µM.

As to `COC(=O)[C@@H]1Cc2ncn(Cc3ccc(OC)cc3)c2CN1[S+](C)(=O)[O-]` [NCGC00401682-01], the AC50 stood at 19.3 µM.

In the case of `CCCCn1cc(C(=O)c2cc(Br)ccc2O)cc(C#N)c1=O` [MLS000568063-01], the AC50 turned out to be 13.3 µM.

With `COCCN(CCOC)c1nc(N)c2c(N)nc3c(c2c1C#N)CC(=O)N3Cc1ccc(Cl)cc1` [MLS000402239-01], the AC50 turned out to be 5.96 µM.

Consider `COc1ccc2cc1Nc1ccc(cc1)C[C@H](NC(=O)Cc1cccc(Cl)c1)C(=O)N(C)[C@H](C(=O)NCCOc1ccccc1)C2` [NCGC00410283-01], for which the AC50 amounted to 7.5 µM.

Consider `CCN(CC)CCCNC(=O)c1nn(-c2ccc(OC)c(Cl)c2)c(=O)c2c1c1ccccc1n2C` [NCGC00108872-01], for which the AC50 was found to be 10.6 µM.

For the compound `Cc1ccc(NC(=O)c2c(C)oc3ccc(O)c(CN4CCCCCC4)c23)c(C)c1` [NCGC00115658-01], the AC50 was found to be 4.73 µM.

Consider `Cc1cccc(-c2cc(C3CCN([S+](=O)([O-])c4cccc(C#N)c4)CC3)[nH]n2)c1` [NCGC00433033-01], for which the concentration at half-maximal activity (AC50) was found to be 15 µM.

As to `CC(=O)c1c(S)nc(-c2ccccc2)nc1N1CCN(C)CC1` [MLS000519428-01], the AC50 came to 5.96 µM.

Turning to `COc1cccc(Nc2ccc3c(n2)C(C)(C(=O)NC2CCC2)CN(C)C3)c1` (centres unmarked) [NCGC00414508-01], the AC50 was 15.3 µM.

For the compound `CC1C(=O)C(C)C(c2cc(Cl)ccc2O)NC1c1cc(Cl)ccc1O` (centres unmarked) [MLS001197743-01], the concentration at half-maximal activity (AC50) turned out to be 6.68 µM.

For the compound `COCCNc1cc(N2CCN(C3CCCCC3)CC2)c2noc3c2c1C(=O)c1ccccc1-3` [NCGC00111067-01], the concentration at half-maximal activity (AC50) was 15 µM.

Consider `Cc1ccccc1N(C(=O)c1snc(C(N)=O)c1N)C(C(=O)NCC1CCCO1)c1ccc(N(C)C)cc1` (centres unmarked) [MLS001218424-01], for which the AC50 was determined as 7.5 µM.

As to `COc1ccc(-n2nc3ccc(NC(=O)c4ccc(-c5cc(Cl)ccc5Cl)o4)cc3n2)cc1` [NCGC00098498-01], the AC50 stood at 4.22 µM.

For `O=C(c1ccc(OC2CCN(Cc3c[nH]c4ccccc34)CC2)cc1)N1CCCCC1` [NCGC00429064-01], the AC50 came to 15 µM.

For the compound `CC(C)(C)NC(=O)c1ccc(-c2nnc3ccc(NC(=O)C4CC4)cn23)cc1` [NCGC00429854-01], the AC50 was 9.44 µM.

Consider `Cc1cc(NC(=O)c2cc(-c3ccco3)on2)nn1Cc1ccc(Cl)cc1` [MLS000087231-01], for which the AC50 is 8.41 µM.

For the compound `C#Cc1ccc(C(=O)Nc2ccc(N3CCC(C)CC3)c(C(N)=O)c2)cc1` [MLS000764680-01], the AC50 was determined as 6.68 µM.

Take `CN(C)C(C(=O)N1CCC(F)(F)CC1)c1ccccc1F` (centres unmarked) [NCGC00444487-01]: the concentration at half-maximal activity (AC50) came to 15 µM.

As to `CCOc1ccc(NC(=O)CCc2c(C)nc3cc(-c4ccc(Cl)cc4)nn3c2C)cc1` [NCGC00110024-01], the concentration at half-maximal activity (AC50) was found to be 6.68 µM.

In the case of `Fc1ccc(-c2ccc3ncc(Nc4ccnc(N5CCOCC5)c4)n3n2)cc1` [NCGC00412558-01], the concentration at half-maximal activity (AC50) amounted to 1.72 µM.

`CCC[S+](=O)([O-])c1nc([S+](=O)([O-])c2ccc(C)cc2)c(NCCCOC(C)C)s1` [NCGC00113582-01]: the concentration at half-maximal activity (AC50) was found to be 2.11 µM.

Turning to `OC(CNCC(c1ccco1)N1CCCCC1)c1ccccc1` (centres unmarked) [MLS000097545-01], the half-maximal activity concentration (AC50) was 5.96 µM.

For the compound `Cc1ccc(/C=N/NC(=O)c2nnn(-c3nonc3N)c2-c2ccc3c(c2)OCO3)s1` [MLS001142659-01], the AC50 was 0.841 µM.

For the compound `COc1ccc(CN2C(=O)COC[C@@H]2[C@H](O)c2ccc(NC(=O)c3ccc(C(C)(C)C)cc3)cc2)cc1` [NCGC00392864-01], the concentration at half-maximal activity (AC50) was determined as 2.11 µM.

In the case of `O=C1C=C(c2cccc(CO)c2)C[C@@H](c2ccc(Cl)cc2)C1` [MLS002302575-01], the AC50 worked out at 3.76 µM.

Turning to `Cc1cccc(N2CCN(C(=O)CCc3nnc4n(CC(C)C)c(=O)c5ccccc5n34)CC2)c1C` [NCGC00112784-01], the concentration at half-maximal activity (AC50) was determined as 3.35 µM.

Consider `COc1cccc(CN2CCc3c(cc(C(=O)NCc4ccccn4)n3C)C2)c1` [NCGC00430584-01], for which the AC50 turned out to be 15 µM.

As for `OCC[n+]1ccc(/C=C/c2c[nH]c3ccccc23)cc1` [MLS000585200-01], the concentration at half-maximal activity (AC50) amounted to 2.99 µM.

For `CCC(C)N(CCNC(=O)c1ccc2c(c1)NC(=O)c1ccccc1S2)C1CCCCC1` (centres unmarked) [MLS001110969-01], the AC50 was found to be 13.3 µM.

In the case of `CC(C)C(=O)NCC1CN(Cc2ccccc2)C(=O)c2c(ccnc2-c2ccc(OCC(=O)O)cc2)O1` (centres unmarked) [NCGC00420601-01], the concentration at half-maximal activity (AC50) amounted to 2.11 µM.

Take `CCOc1ccc(NC(=O)c2nnn3cc(C)[nH]c(=O)c23)cc1` [NCGC00454245-01]: the half-maximal activity concentration (AC50) turned out to be 10.6 µM.

For the compound `CNC(=O)CCn1ncc2cc(OCc3ccccc3-c3ccccc3OC)ccc21` [NCGC00418023-01], the half-maximal activity concentration (AC50) was 15.3 µM.

As for `O=C(NC1CC1)c1ccccc1OCC1CCCN(Cc2cccc3[nH]ccc23)C1` (centres unmarked) [NCGC00427156-01], the AC50 was 5.96 µM.

As to `CCCC1=[N+](CC(=O)c2ccccc2)CCn2c(C)ccc21` [MLS000551171-01], the half-maximal activity concentration (AC50) amounted to 15 µM.

Turning to `O=C(Nc1cnc2ccccc2c1)c1cccc(-n2cnnn2)c1` [MLS000032104-01], the concentration at half-maximal activity (AC50) was 2.66 µM.

As for `COc1ccc(CCNc2nc3cc(OC)c(OC)cc3c3nc(-c4ccccc4)nn23)cc1OC` [NCGC00112847-01], the AC50 was 2.37 µM.

`COc1ccccc1C(=O)N1CCC2(CC1)OC(=O)N(CCOc1ccccc1)C2(C)c1cccnc1` (centres unmarked) [NCGC00415508-01]: the concentration at half-maximal activity (AC50) came out at 9.44 µM.

On to `Cn1cccc1CN1C[C@@H](COc2ccncc2)[C@H](c2ccccn2)C1` [NCGC00468708-01], for which the AC50 was determined as 13.3 µM.

As for `Fc1ccc(Oc2nc(-c3ccccn3)nc3ccccc23)cc1` [MLS000769507-01], the half-maximal activity concentration (AC50) was 13.3 µM.

For the compound `CCCCCC(O)(c1ccc(OC)cc1)C(CN1CCOCC1)c1ccccc1` (centres unmarked) [MLS001198946-01], the AC50 stood at 2.11 µM.

For `CCOC(=O)c1ccccc1NC1c2ccccc2C(=O)N1C1CCN(C(=O)OCC)CC1` (centres unmarked) [MLS000878310-01], the concentration at half-maximal activity (AC50) came to 13.3 µM.

As for `Cc1cc(OC(C)C(=O)NCCc2c[nH]c3ccccc23)c2c(C)cc(=O)oc2c1` (centres unmarked) [MLS001158613-01], the AC50 came to 2.66 µM.

`Cc1ccc(-c2nnc(Nc3ccc(O)cc3)c3ccccc23)cc1[S+](=O)([O-])N1CCN(C)CC1` [NCGC00099994-01]: the AC50 came out at 6.68 µM.

`CC(=O)Nc1cccc(-c2cc(C(=O)NCc3c(C)cc(C)[nH]c3=O)c3c(c2)N(C(C)C)CCO3)c1` [NCGC00417042-01]: the AC50 was 9.44 µM.

By AC50 is commonly meant the midpoint of the concentration-response curve, whichever way the signal moves.
